Where two headings read alike, the source gives them in different places.

As usually defined, the Emax is the size of the effect at its maximum, as opposed to the concentration needed. The term melting point denotes the temperature, or range, at which the solid turns liquid.

For one data set, the target named is human mGluR5a receptor (Homo sapiens, UniProt P41594). Description: Cell-based functional assay (Ca2+ mobilization, FDSS) for positive allosteric modulation of mGluR5. The conditions noted are these: for EC50: potentiation in presence of EC20 glutamate; for Emax: maximum % effect in concentration-response curve, as percent of response to maximally effective glutamate concentration. The protocol:
The mGluR5 activity was determined using the metabotropic glutamate receptor activity assays in human embryonic kidney cells as described herein, wherein the human embryonic kidney cells were transfected with human mGluR5. The compounds in Table I were synthesized with methods identical or analogous to those shown herein. The Synthetic Route Reference indicated in Table I refers to the Reaction Scheme number described above. The requisite starting materials were commercially available, described in the literature, or readily synthesized by one skilled in the art of organic synthesis.
Human mGluR5a cDNA in pCMV6-XL6 mammalian expression plasmid was purchased from OriGene Technologies, Inc. (catalogue number SC326357) and subcloned into pcDNA3.1(−). […] Monoclones were named for the species (“H” for human) plus the location on the plate (e.g. “10H”).
HEK cells transfected with the human mGluR5a receptor (H10H or H12H cell line) were plated at 15,000 cells/well in clear-bottomed poly-D-lysine-coated assay plates (BD Falcon) in glutamate-glutamine-free growth medium and incubated overnight at 37° C. and 5% CO2. Cell-lines used were either the H10H or H12H cell-lines expressing the human mGluR5 receptor. The following day, the growth medium was removed and the cells were washed with assay buffer containing 1× Hank's balanced salt solution (Invitrogen, Carlsbad, Calif.), 20 mM HEPES, 2.5 mM probenecid, pH 7.4 and left with 20 μL of this reagent. Following this step, the cells were loaded with calcium indicator dye, fluo-4 AM, to a final concentration of 2 μM and incubated for 40-45 min at 37° C. The dye solution was removed and replaced with assay buffer. Cell plates were held for 10-15 min at room temperature and were then loaded into the Functional Drug Screening System 6000 (FDSS 6000, Hamamatsu, Japan).
After establishment of a fluorescence baseline for about 3 seconds, the compounds of the present invention were added to the cells, and the response in cells was measured. 2.3 minutes later an EC20 concentration of the mGluR5 receptor agonist glutamate was added to the cells, and the response of the cells was measured for about 1.7 minutes. All test compounds were dissolved and diluted to a concentration of 10 mM in 100% DMSO and then serially diluted into assay buffer for a 2× stock solution in 0.6% DMSO; stock compounds were then added to the assay for a final DMSO concentration of 0.3% after the first addition to the assay well. Calcium fluorescence measures were recorded as fold over basal fluorescence; raw data was then normalized to the maximal response to glutamate.
The concentration-response curves of compounds of the present invention, obtained in the presence of EC20 of mGluR5 receptor agonist glutamate to determine positive allosteric modulation, were generated using Microsoft Excel with IDBS XLfit add-ins. The raw data file containing all time points was used as the data source in the analysis template. This was saved by the FDSS as a tab-delimitted text file. Data were normalized using a static ratio function (F/F0) for each measurement of the total 350 values per well divided by each well's initial value. Data was then reduced as to peak amplitudes (Max—Initial Min) using a time range that starts approximately 1 second after the glutamate EC20 addition and continues for approximately 40 seconds. This is sufficient time to capture the peak amplitude of the cellular Calcium response. Individual amplitudes were expressed as % EMax by multiplying each amplitude by 100 and then dividing the product by the mean of the amplitudes derived from the glutamate ECMax-treated wells. pEC50 values for test compounds were generated by fitting the normalized values versus the log of the test compound concentration (in mol/L) using a 4 parameter logistic equation where none of the parameters were fixed.
In general terms: Calcium assays in cells follow changes in intracellular calcium, usually with a dye or a luminescent sensor.

Where [1] appears, read: HEK cells transfected with human mGluR5a (H10H or H12H), read-out: EC50.
[2] abbreviates: HEK cells transfected with human mGluR5a (H10H or H12H), concentration in mol/L, read-out: pEC50 (converted).
Setting [3] is: EC50 (nM), HEK cells transfected with human mGluR5a (H10H or H12H).
The mark [4] stands for this setting: pEC50, HEK cells transfected with human mGluR5a (H10H or H12H), concentration in mol/L.

Chain of human mGluR5a receptor (P41594 21-1180 isoform P41594-2 limits assumed): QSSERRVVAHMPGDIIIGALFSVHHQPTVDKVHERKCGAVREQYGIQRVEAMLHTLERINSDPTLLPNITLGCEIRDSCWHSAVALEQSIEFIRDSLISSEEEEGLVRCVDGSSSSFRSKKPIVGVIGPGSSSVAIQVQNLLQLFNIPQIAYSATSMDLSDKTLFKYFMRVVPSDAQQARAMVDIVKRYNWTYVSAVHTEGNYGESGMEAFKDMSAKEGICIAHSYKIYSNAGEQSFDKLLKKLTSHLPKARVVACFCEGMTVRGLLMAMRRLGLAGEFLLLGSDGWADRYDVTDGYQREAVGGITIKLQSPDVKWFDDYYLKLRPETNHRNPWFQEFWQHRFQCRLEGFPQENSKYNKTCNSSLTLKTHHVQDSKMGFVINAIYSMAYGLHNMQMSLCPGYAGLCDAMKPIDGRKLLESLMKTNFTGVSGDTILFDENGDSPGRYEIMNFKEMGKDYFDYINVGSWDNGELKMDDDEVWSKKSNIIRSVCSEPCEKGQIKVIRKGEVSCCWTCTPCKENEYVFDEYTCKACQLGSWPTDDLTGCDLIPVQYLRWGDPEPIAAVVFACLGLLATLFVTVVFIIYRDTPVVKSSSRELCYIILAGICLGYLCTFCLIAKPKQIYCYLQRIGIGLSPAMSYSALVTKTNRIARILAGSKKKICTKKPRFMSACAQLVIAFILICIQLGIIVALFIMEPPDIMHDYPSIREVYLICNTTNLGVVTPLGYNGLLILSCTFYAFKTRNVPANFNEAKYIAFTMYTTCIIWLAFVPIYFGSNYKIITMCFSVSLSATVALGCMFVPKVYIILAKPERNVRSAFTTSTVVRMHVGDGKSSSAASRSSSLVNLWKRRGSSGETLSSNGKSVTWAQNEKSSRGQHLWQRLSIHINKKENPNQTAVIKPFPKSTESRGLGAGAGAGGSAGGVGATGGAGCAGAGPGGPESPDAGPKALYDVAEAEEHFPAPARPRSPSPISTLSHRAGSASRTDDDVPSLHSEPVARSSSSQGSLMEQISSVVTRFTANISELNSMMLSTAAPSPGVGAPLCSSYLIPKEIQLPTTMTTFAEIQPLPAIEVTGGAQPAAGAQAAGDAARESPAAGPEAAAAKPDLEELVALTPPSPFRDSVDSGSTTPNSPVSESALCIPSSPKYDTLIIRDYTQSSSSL

Regarding `O=c1[nH]ccc2nc(COc3ccccc3)cn12` [compound 1, 2-phenoxymethyl-6H-imidazo[1,2-c]pyrimidin-5-one], the EC50 at human mGluR5a receptor (setting [1]) is > 30200 nM. Further, on human mGluR5a receptor, the Emax is 19%.
Compound `Cn1ccc2nc(COc3ccccc3)cn2c1=O` [compound 2] displayed a melting point of 130.9 °C. In addition, the EC50 at human mGluR5a receptor (setting [1]) is > 10000 nM. Also, the Emax at human mGluR5a receptor is 69%.
For `O=c1n(-c2ccc(F)cc2)ccc2nc(COc3ccccc3)cn12` [compound 3], the melting point turned out to be 142.3 °C. Moreover, at human mGluR5a receptor (setting [2]), the EC50 is 269 nM. Moreover, the EC50 on human mGluR5a receptor (setting [1]) stood at 392 nM. For the same compound, the maximal effect (Emax) on human mGluR5a receptor amounted to 79%.
Consider `O=c1n(-c2cccc(F)c2)ccc2nc(COc3ccccc3)cn12` [compound 4], for which the melting point stood at 123.4 °C. At human mGluR5a receptor (setting [3]), the EC50 was 525 nM. At human mGluR5a receptor, this compound returned an Emax of 68%. In addition, the EC50 at human mGluR5a receptor (setting [4]) was 513 nM.
`O=c1n(-c2ccc(F)c(F)c2)ccc2nc(COc3ccccc3)cn12` [compound 5] returned a melting point of 296.6 °C. Further, the EC50 at human mGluR5a receptor (setting [3]) worked out at 228 nM. Further, the EC50 at human mGluR5a receptor (setting [2]) is 214 nM. At human mGluR5a receptor, this compound returned an Emax of 79%.
On the same counts, the results for `O=c1n(-c2ccc(F)cc2)ccc2nc(COc3cccc(F)c3)cn12` [compound 6] are 141.1 °C, 224 nM, 214 nM and 73%.
Consider `O=c1n(Cc2ccccc2)ccc2nc(COc3ccccc3)cn12` [compound 7], for which the melting point was 122.3 °C. For the same compound, on human mGluR5a receptor (setting [1]), the EC50 turned out to be 1240 nM. The maximal effect (Emax) at human mGluR5a receptor came out at 80%.
Regarding `Cc1cccc(-n2ccc3nc(COc4ccccc4)cn3c2=O)n1` [compound 8], the melting point is > 300 °C. Further, the EC50 on human mGluR5a receptor (setting [2]) is 2190 nM. Also, the EC50 on human mGluR5a receptor (setting [1]) was 2290 nM. The compound further had an Emax at human mGluR5a receptor of 43%.
Turning to `O=c1n(-c2ccc(F)cn2)ccc2nc(COc3ccccc3)cn12` [compound 9], the EC50 at human mGluR5a receptor (setting [1]) was determined as 490 nM. The compound further showed an Emax at human mGluR5a receptor of 75%.
As to `Cc1nc(-n2ccc3nc(COc4ccccc4)cn3c2=O)ccc1F` [compound 10], the melting point is 199.5 °C. For the same compound, on human mGluR5a receptor (setting [1]), the EC50 is 292 nM. On human mGluR5a receptor, this compound showed a maximal effect (Emax) of 70%.
In turn, `Cc1ccc(-n2ccc3nc(COc4ccccc4)cn3c2=O)nc1` [compound 11] yielded a melting point of 209.4 °C. For the same compound, on human mGluR5a receptor (setting [2]), the EC50 was 1150 nM. For the same compound, the EC50 at human mGluR5a receptor (setting [1]) worked out at 1320 nM. The maximum response (Emax) on human mGluR5a receptor turned out to be 59%.
On to `Cc1cccc(OCc2cn3c(=O)n(-c4ccc(F)cc4)ccc3n2)c1` [compound 12], for which the EC50 was 513 nM at human mGluR5a receptor (setting [2]) and 468 nM at human mGluR5a receptor (setting [1]). For the same compound, the Emax on human mGluR5a receptor was determined as 33%.
For `N#Cc1cccc(OCc2cn3c(=O)n(-c4ccc(F)cc4)ccc3n2)c1` [compound 13], the melting point stood at 165 °C. Further, the EC50 at human mGluR5a receptor (setting [1]) was found to be 350 nM. The maximal effect (Emax) on human mGluR5a receptor was 40%.
In turn, `O=c1n(-c2ccc(F)cc2)ccc2nc(COc3ccc(F)cc3)cn12` [compound 14] displayed a melting point of 163.4 °C. The EC50 at human mGluR5a receptor (setting [2]) was 309 nM. The EC50 on human mGluR5a receptor (setting [1]) was found to be 302 nM. At human mGluR5a receptor, this compound showed an Emax of 72%.
As to `Cc1ccnc(-n2ccc3nc(COc4ccccc4)cn3c2=O)c1` [compound 15], the melting point turned out to be 239.4 °C. Also, the EC50 on human mGluR5a receptor (setting [2]) was > 10000 nM. Moreover, at human mGluR5a receptor (setting [1]), the EC50 worked out at 8320 nM. The compound also displayed an Emax at human mGluR5a receptor of 51%.
On the same counts, the results for `O=c1n(-c2cccc(C(F)(F)F)c2)ccc2nc(COc3ccc(F)cc3)cn12` [compound 16] are > 300 °C, 1170 nM, 1290 nM and 50%.
For the compound `O=c1n(CC2CC2)ccc2nc(COc3ccccc3)cn12` [compound 17], the melting point was 102.1 °C. The EC50 on human mGluR5a receptor (setting [3]) was 1100 nM. In addition, the EC50 at human mGluR5a receptor (setting [2]) is 1050 nM. Further, on human mGluR5a receptor, the Emax was 51%.
As to `O=c1n(-c2ccc(F)cc2)ccc2nc(COc3ccccn3)cn12` [compound 18], the melting point stood at 282.3 °C. Moreover, at human mGluR5a receptor (setting [2]), the EC50 is 2140 nM. In addition, the EC50 at human mGluR5a receptor (setting [1]) turned out to be 2510 nM. The same compound showed an Emax at human mGluR5a receptor of 66%.
On to `O=c1n(-c2ccc(F)cc2)ccc2nc(COc3cccnc3)cn12` [compound 19], for which the melting point is > 300 °C. Besides, at human mGluR5a receptor (setting [1]), the EC50 was > 30200 nM. At human mGluR5a receptor, this compound displayed an Emax of 59%.
`O=c1n(-c2ccc(F)cc2)cc(F)c2nc(COc3ccccc3)cn12` [compound 20]: the melting point was determined as 110.7 °C. Besides, the EC50 at human mGluR5a receptor (setting [2]) is 85.1 nM. The EC50 on human mGluR5a receptor (setting [1]) worked out at 78 nM. Further, at human mGluR5a receptor, the Emax stood at 73%.
Compound `O=c1n(-c2cccc(C(F)(F)F)c2)ccc2nc(COc3ccc(Cl)cc3)cn12` [compound 21] displayed a melting point of 141.8 °C. Besides, the EC50 at human mGluR5a receptor (setting [1]) is > 10000 nM.
On the same counts, the results for `N#Cc1ccc(OCc2cn3c(=O)n(-c4cccc(C(F)(F)F)c4)ccc3n2)cc1` [compound 22] are 189.4 °C and > 10000 nM.
`Cc1cc(-n2ccc3nc(COc4ccccc4)cn3c2=O)ncc1F` [compound 23] displayed a melting point of 203.1 °C. The EC50 on human mGluR5a receptor (setting [2]) was 331 nM. On human mGluR5a receptor (setting [1]), the EC50 was 327 nM. Also, the Emax at human mGluR5a receptor came out at 60%.
The matching figures for `CN(C)c1cccc(-n2ccc3nc(COc4ccccc4)cn3c2=O)n1` [compound 24]: 136 °C, 209 nM, 201 nM and 64%.
As for `COc1nccc(-n2ccc3nc(COc4ccccc4)cn3c2=O)n1` [compound 25, 6-(2-methoxy-pyrimidin-4-yl)-2-phenoxymethyl-6H-imidazo[1,2-c]pyrimidin-5-one], the melting point came to 171.2 °C. In addition, the EC50 at human mGluR5a receptor (setting [1]) was found to be 570 nM. This compound also yielded an Emax on human mGluR5a receptor of 46%.
On the same counts, the results for `Cc1cn(-c2ccc(F)cc2)c(=O)n2cc(COc3ccccc3)nc12` [compound 27, 6-(4-fluoro-phenyl)-8-methyl-2-phenoxymethyl-6H-imidazo[1,2-c]pyrimidin-5-one] are 146.9 °C, > 30200 nM and 16%.
As for `Cc1cc2nc(COc3ccccc3)cn2c(=O)n1-c1ccc(F)cc1` [compound 28], the melting point came out at 143.6 °C. In addition, on human mGluR5a receptor (setting [2]), the EC50 was 1480 nM. The EC50 at human mGluR5a receptor (setting [1]) came to 1860 nM. At human mGluR5a receptor, this compound gave an Emax of 49%.
Regarding `O=c1n(-c2ccc(F)cc2)ccc2nc(COc3ccccc3)c(Cl)n12` [compound 29, 3-chloro-6-(4-fluoro-phenyl)-2-phenoxymethyl-6H-imidazo[1,2-c]pyrimidin-5-one], the melting point is 170.3 °C. Also, the EC50 on human mGluR5a receptor (setting [1]) is > 30200 nM. Also, the Emax at human mGluR5a receptor came out at 17%.
`O=C1N(c2ccc(F)cc2)CCc2nc(COc3ccccc3)cn21` [compound 31] displayed a melting point of 195.2 °C. Moreover, the EC50 at human mGluR5a receptor (setting [2]) is 102 nM. Besides, the EC50 on human mGluR5a receptor (setting [1]) was found to be 97 nM. At human mGluR5a receptor, this compound had an Emax of 71%.
`Cc1ccc(N2CCc3nc(COc4ccccc4)cn3C2=O)nc1` [compound 36, 6-(5-methyl-pyridin-2-yl)-2-phenoxymethyl-7,8-dihydro-6H-imidazo[1,2-c]pyrimidin-5-one]: on human mGluR5a receptor (setting [1]), the EC50 came out at 468 nM. The compound further showed an Emax on human mGluR5a receptor of 63%.
Regarding `Cc1nc(N2CCc3nc(COc4ccccc4)cn3C2=O)ccc1F` [compound 38], the EC50 at human mGluR5a receptor (setting [1]) is 166 nM; on human mGluR5a receptor (setting [4]) it was 178 nM. The Emax at human mGluR5a receptor was 72%.

These data come from patent publication US8865725B2, “Substituted imidazopyrimidin-5(6H)-ones as allosteric modulators of MGLUR5 receptors” (Vanderbilt University, priority 2011, dated 2014).
